Drawing on patent US20220389009A1, “SUBSTITUTED 1,6-NAPHTHYRIDINE INHIBITORS OF CDK5” (Goldfinch Bio, Inc., priority 2019, published 2022), this text covers IC50 and CDK5/CDK2 specificity for 20 molecules.

In one assay the target is CDK5/p25 (Homo sapiens, UniProt Q00535). Kind of assay: CDK5 mobility shift assay (enzymatic activity of CDK5/p25). The class given is biochemical. To be noted: for IC50: 0.154 nM CDK5/p25, FL peptide 29, 60 min at room temperature, read-out: CDK5 IC50; for CDK5/CDK2 specificity: fold more active against CDK5 than CDK2. In short, it runs like this:
(§1)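 Carna CDK5/p25 (0.154 nM) or CDK2/CycA2 (1.25 nM) was preincubated 30 min with compound, ATP ([…] for CDK5; 37 μM for CDK2) and 10 mM MgCl2 in HEPES pH 7.5. The reaction was started with 1.5 μM FL peptide (29 for CDK5, 18 for CDK2) and run 60 min (CDK5) or 120 min (CDK2) at room temperature. Product was read by mobility shift, with IC50 from a 4-parameter fit.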

Another assay concerns the target CDK2/CycA2 (Homo sapiens, UniProt P24941). The assay is described as follows: CDK2 mobility shift assay (enzymatic activity of CDK2/CycA2). Type of assay: biochemical. Particulars: 1.25 nM CDK2/CycA2, 37 μM ATP, FL Peptide 18, 120 min at room temperature; read-out: CDK2 IC50. The method, boiled down: as §1

Molecules are shown by their SMILES.

Sequence of CDK5/p25 (Q00535 whole entry): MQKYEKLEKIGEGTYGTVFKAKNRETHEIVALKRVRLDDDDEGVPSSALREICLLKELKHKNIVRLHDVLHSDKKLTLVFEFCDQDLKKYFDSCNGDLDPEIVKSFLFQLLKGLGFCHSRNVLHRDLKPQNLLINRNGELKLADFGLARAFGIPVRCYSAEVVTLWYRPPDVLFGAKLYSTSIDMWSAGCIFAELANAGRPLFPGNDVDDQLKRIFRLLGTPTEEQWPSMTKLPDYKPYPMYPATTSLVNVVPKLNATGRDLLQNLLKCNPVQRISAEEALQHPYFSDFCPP
Sequence of CDK5/p25 (Q15078 99-307 partner limits assumed): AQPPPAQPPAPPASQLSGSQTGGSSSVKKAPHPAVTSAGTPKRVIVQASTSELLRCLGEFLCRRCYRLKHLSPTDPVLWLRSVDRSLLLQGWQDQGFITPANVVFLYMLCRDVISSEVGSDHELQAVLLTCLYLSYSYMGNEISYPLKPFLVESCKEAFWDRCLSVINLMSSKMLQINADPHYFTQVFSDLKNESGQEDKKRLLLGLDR

As to `CN1CCC(S(=O)(=O)c2ccc3cnc(Nc4ccc(-n5ccc(C(=O)O)n5)cc4F)cc3n2)CC1` [Compound 198, 1-(3-fluoro-4-((2-((1-methylpiperidin-4-yl)sulfonyl)-1,6-naphthyridin-7-yl)amino)phenyl)-1H-pyrazole-3-carboxylic acid], the IC50 is less than 10 nM at CDK5/p25 and 100 to 1000 nM at CDK2/CycA2. Moreover, on CDK5/p25, the CDK5/CDK2 specificity result is reported as “+++ (greater than 100-fold more active against CDK5 than CDK2)”.

Consider `CN1CCC(NS(=O)(=O)c2ccc3cnc(Nc4ccc(-n5ccc(CO)n5)cc4F)cc3n2)CC1` [Compound 203, 7-([2-fluoro-4-[3-(hydroxymethyl)pyrazol-1-yl]phenyl]amino)-N-(1-methylpiperidin-4-yl)-1,6-naphthyridine-2-sulfonamide], for which, at CDK5/p25, the IC50 was in the range of 100 to 1000 nM and the CDK5/CDK2 specificity entry is “+ (10-fold or less more active against CDK5 than CDK2)”. Moreover, the half-inhibitory concentration (IC50) at CDK2/CycA2 is more than 1000 nM.

In the case of `O=S(=O)(Cc1ccc2cnc(Nc3ccc(-n4ccc(CO)n4)cc3F)cc2n1)C1CCNCC1` [Compound 207, [1-[3-fluoro-4-([2-[(piperidine-4-sulfonyl)methyl]-1,6-naphthyridin-7-yl]amino)phenyl]pyrazol-3-yl]methanol], at CDK5/p25, the 50% inhibitory concentration (IC50) fell in the range of 100 to 1000 nM and the CDK5/CDK2 specificity result is “+ (10-fold or less more active against CDK5 than CDK2)”. For the same molecule, the half-inhibitory concentration (IC50) at CDK2/CycA2 is more than 1000 nM.

On to `O=S(=O)(c1ccc2cnc(Nc3ccc(-n4ccc(CO)n4)cc3F)cc2n1)N1CCNCC1` [Compound 208, [1-(3-fluoro-4-[[2-(piperazine-1-sulfonyl)-1,6-naphthyridin-7-yl]amino]phenyl)pyrazol-3-yl]methanol], for which, at CDK5/p25, the IC50 fell in the range of 10 to 100 nM and the CDK5/CDK2 specificity result is reported as “+ (10-fold or less more active against CDK5 than CDK2)”. At CDK2/CycA2, the half-maximal inhibitory concentration (IC50) lay in the range of 100 to 1000 nM.

`OC(c1ccc2cnc(Nc3ccc(-n4cccn4)cc3F)cc2n1)C1(O)CCNCC1` (stereo not drawn) [Compound 209, 4-[(7-[[2-fluoro-4-(pyrazol-1-yl)phenyl]amino]-1,6-naphthyridin-2-yl) (hydroxy)methyl]piperidin-4-ol]: at CDK5/p25, the 50% inhibitory concentration (IC50) is 100 to 1000 nM; the CDK5/CDK2 specificity result is “++ (greater than 10-fold and less than or equal to 100-fold more active against CDK5 than CDK2)”. The 50% inhibitory concentration (IC50) on CDK2/CycA2 is more than 1000 nM.

Turning to `NC1CCN(C(=O)c2ccc3cnc(Nc4ccc(-n5cccn5)cc4F)cc3n2)C1` (stereo not drawn) [Compound 215, 2-(3-aminopyrrolidine-1-carbonyl)-N-[2-fluoro-4-(pyrazol-1-yl)phenyl]-1,6-naphthyridin-7-amine], at CDK5/p25, the IC50 was 100 to 1000 nM and the CDK5/CDK2 specificity result is given as “+ (10-fold or less more active against CDK5 than CDK2)”. At CDK2/CycA2, the IC50 is more than 1000 nM.

Take `CN1CCC(C(=O)c2ccc3cnc(Nc4ccc(-n5cccn5)cc4F)cc3n2)CC1` [Compound 217, N-[2-fluoro-4-(pyrazol-1-yl)phenyl]-2-(1-methylpiperidine-4-carbonyl)-1,6-naphthyridin-7-amine]: the IC50 at CDK5/p25 and at CDK2/CycA2 was less than 10 nM throughout. The CDK5/CDK2 specificity result at CDK5/p25 was “++ (greater than 10-fold and less than or equal to 100-fold more active against CDK5 than CDK2)”.

With `CN1CCC(O)(C(O)c2ccc3cnc(Nc4ccc(-n5cccn5)cc4F)cc3n2)CC1` (stereo not drawn) [Compound 240, 4-[(7-[[2-fluoro-4-(pyrazol-1-yl)phenyl]amino]-1,6-naphthyridin-2-yl) (hydroxy)methyl]-1-methylpiperidin-4-ol], the figures for the 50% inhibitory concentration (IC50) on CDK5/p25 and on CDK2/CycA2 were 100 to 1000 nM and more than 1000 nM, respectively. The CDK5/CDK2 specificity result at CDK5/p25 is “++ (greater than 10-fold and less than or equal to 100-fold more active against CDK5 than CDK2)”.

Regarding `NC1CCCN(C(=O)c2ccc3cnc(Nc4ccc(-n5cccn5)cc4F)cc3n2)C1` (stereo not drawn) [Compound 242, 2-(3-aminopiperidine-1-carbonyl)-N-[2-fluoro-4-(pyrazol-1-yl)phenyl]-1,6-naphthyridin-7-amine], the IC50 at CDK5/p25 is 100 to 1000 nM; at CDK2/CycA2 it was more than 1000 nM. Further, on CDK5/p25, the CDK5/CDK2 specificity result was “++ (greater than 10-fold and less than or equal to 100-fold more active against CDK5 than CDK2)”.

As for `CN1CCN(S(=O)(=O)c2ccc3cnc(Nc4ccc(-n5ccc(CO)n5)cc4F)cc3n2)CC1` [Compound 245, [1-(3-fluoro-4-[[2-(4-methylpiperazin-1-ylsulfonyl)-1,6-naphthyridin-7-yl]amino]phenyl)pyrazol-3-yl]methanol], on CDK5/p25, the 50% inhibitory concentration (IC50) lay in the range of 100 to 1000 nM and the CDK5/CDK2 specificity result is given as “+ (10-fold or less more active against CDK5 than CDK2)”. At CDK2/CycA2, the IC50 was 100 to 1000 nM.

Turning to `CCC(c1ccc2cnc(Nc3ccc(-n4ccc(CO)n4)cc3F)cc2n1)C1CCN(C)CC1` (stereo not drawn) [Compound 246], the 50% inhibitory concentration (IC50) on CDK5/p25 is 100 to 1000 nM; at CDK2/CycA2, more than 1000 nM. In addition, the CDK5/CDK2 specificity entry on CDK5/p25 was “++ (greater than 10-fold and less than or equal to 100-fold more active against CDK5 than CDK2)”.

Consider `CN1CCC(NS(=O)(=O)c2ccc3cnc(Nc4ccc(-n5ccc(CO)n5)cc4F)cc3n2)C1` (stereo not drawn) [Compound 248], for which the IC50 at CDK5/p25 lay within 10 to 100 nM; on CDK2/CycA2 it was 100 to 1000 nM. In addition, the CDK5/CDK2 specificity result at CDK5/p25 is given as “+ (10-fold or less more active against CDK5 than CDK2)”.

`O=S(=O)(c1ccc2cnc(Nc3ccc(-n4ccc(CO)n4)cc3F)cc2n1)C1CCN(CC(O)CO)CC1` (stereo not drawn) [Compound 249]: on CDK5/p25, the IC50 is less than 10 nM; the CDK5/CDK2 specificity entry was “++ (greater than 10-fold and less than or equal to 100-fold more active against CDK5 than CDK2)”. Moreover, at CDK2/CycA2, the IC50 fell in the range of 100 to 1000 nM.

`O=S(=O)(c1ccc2cnc(Nc3ccc(-n4ccc(CO)n4)cc3F)cc2n1)C1CCN(CC(O)CO)CC1` (stereo not drawn) [Compound 253]: on CDK5/p25, the IC50 fell in the range of 10 to 100 nM; the CDK5/CDK2 specificity entry was “++ (greater than 10-fold and less than or equal to 100-fold more active against CDK5 than CDK2)”. Also, the concentration for half-maximal inhibition (IC50) at CDK2/CycA2 lay in the range of 100 to 1000 nM.

Consider `CN1CCC(S(=O)(=O)c2ccc3cnc(Nc4cccc(C#CC(C)(C)O)c4)cc3n2)CC1` [Compound 256], for which, on CDK5/p25, the IC50 was less than 10 nM and the CDK5/CDK2 specificity result is given as “+++ (greater than 100-fold more active against CDK5 than CDK2)”. For the same molecule, the half-inhibitory concentration (IC50) at CDK2/CycA2 was 10 to 100 nM.

With `CN1CCC(S(=O)(=O)c2ccc3cnc(Nc4ccc(S(=O)(=O)N(C)C)cn4)cc3n2)CC1` [Compound 257], on CDK5/p25, the IC50 fell in the range of 10 to 100 nM and the CDK5/CDK2 specificity entry is reported as “+ (10-fold or less more active against CDK5 than CDK2)”. The IC50 on CDK2/CycA2 was in the range of 10 to 100 nM.

Regarding `Cc1cc(OCCC(N)=O)ccc1Nc1cc2nc(S(=O)(=O)C3CCN(C)CC3)ccc2cn1` [Compound 258], at CDK5/p25, the IC50 was less than 10 nM and the CDK5/CDK2 specificity entry is listed as “+++ (greater than 100-fold more active against CDK5 than CDK2)”. Moreover, on CDK2/CycA2, the half-inhibitory concentration (IC50) is more than 1000 nM.

Consider `COc1cc(Nc2cc3nc(S(=O)(=O)C4CCN(C)CC4)ccc3cn2)ccc1NS(C)(=O)=O` [Compound 259], for which the IC50 is less than 10 nM at CDK5/p25 and 10 to 100 nM at CDK2/CycA2. The CDK5/CDK2 specificity entry at CDK5/p25 was “++ (greater than 10-fold and less than or equal to 100-fold more active against CDK5 than CDK2)”.

For the molecule `Cc1cc(C)cc(Nc2cc3nc(S(=O)(=O)C4CCN(C)CC4)ccc3cn2)c1` [Compound 260], at CDK5/p25, the 50% inhibitory concentration (IC50) is less than 10 nM and the CDK5/CDK2 specificity result is given as “+++ (greater than 100-fold more active against CDK5 than CDK2)”. Moreover, on CDK2/CycA2, the 50% inhibitory concentration (IC50) lay in the range of 100 to 1000 nM.

As for `CN1CCC(S(=O)(=O)c2ccc3cnc(Nc4ccc(CN5CCOCC5)cc4)cc3n2)CC1` [Compound 261], the IC50 on CDK5/p25 is less than 10 nM; at CDK2/CycA2, 100 to 1000 nM. Also, on CDK5/p25, the CDK5/CDK2 specificity result was “+++ (greater than 100-fold more active against CDK5 than CDK2)”.
